What was measured:
Amaranthus retroflexus = assay: greenhouse herbicidal test, post-emergence treatment; format: in vivo; conditions: post-emergence method, application rate 2000 g/ha, scale from 0 to 100, test period 2 to 4 weeks
Text: (§1) The seeds of the test plants were sown separately for each species. For the post-emergence treatment, the test plants were first grown to a height of 3 to 15 cm, depending on the plant habit, and only then treated with the active ingredients which had been suspended or emulsified in water. For this purpose, the test plants were either sown directly and grown in the same containers, or they were first grown separately as seedlings and transplanted into the test containers a few days prior to treatment. Depending on the species, the plants were kept at 10-25° C. or 20-35° C., respectively. The test period extended over 2 to 4 weeks. During this time, the plants were tended, and their response to the individual treatments was evaluated. Evaluation was carried out using a scale from 0 to 100. 100 means no emergence of the plants, or complete destruction of at least the aerial moieties, and 0 means no damage, or normal course of growth. A good herbicidal activity is given at values of at least 70 and a very good herbicidal activity is given at values of at least 85. The plants used in the greenhouse experiments were of the following species: [table]

Matricaria inodora = assay: as above; format: in vivo; conditions: post-emergence method, application rate 2000 g/ha, scale from 0 to 100, test period 2 to 4 weeks
Text: as §1

## Cc1nc(C2CC2)ncc1-c1ncccc1Cl [Ex.01]
Amaranthus retroflexus
  herbicidal activity against AMARE: very good (a very good herbicidal activity is given at values of at least 85)
Matricaria inodora
  herbicidal activity against MATIN: very good (a very good herbicidal activity is given at values of at least 85)

Reference: US20210345613A1, “HERBICIDAL PYRIMIDINE COMPOUNDS” (BASF SE, priority 2016, published 2021)
